The values below come from patent US20150299120A1, “Spirohydantoin compounds and their use as selective androgen receptor modulators” (NOVARTIS AG, priority 2012, published 2015).

In this test the target is T1, androgen receptor (AR) (Homo sapiens, UniProt P10275).
T1 construct: transfecting C2C12 cells with a plasmid containing full-length AR; expressed in transfected cells; host or cells: mouse myoblastic C2C12 cells (ATCC CRL-1772), transiently transfected with AR-FL in pcDNA 3.1(+)
T1 sequence (P10275 1-920): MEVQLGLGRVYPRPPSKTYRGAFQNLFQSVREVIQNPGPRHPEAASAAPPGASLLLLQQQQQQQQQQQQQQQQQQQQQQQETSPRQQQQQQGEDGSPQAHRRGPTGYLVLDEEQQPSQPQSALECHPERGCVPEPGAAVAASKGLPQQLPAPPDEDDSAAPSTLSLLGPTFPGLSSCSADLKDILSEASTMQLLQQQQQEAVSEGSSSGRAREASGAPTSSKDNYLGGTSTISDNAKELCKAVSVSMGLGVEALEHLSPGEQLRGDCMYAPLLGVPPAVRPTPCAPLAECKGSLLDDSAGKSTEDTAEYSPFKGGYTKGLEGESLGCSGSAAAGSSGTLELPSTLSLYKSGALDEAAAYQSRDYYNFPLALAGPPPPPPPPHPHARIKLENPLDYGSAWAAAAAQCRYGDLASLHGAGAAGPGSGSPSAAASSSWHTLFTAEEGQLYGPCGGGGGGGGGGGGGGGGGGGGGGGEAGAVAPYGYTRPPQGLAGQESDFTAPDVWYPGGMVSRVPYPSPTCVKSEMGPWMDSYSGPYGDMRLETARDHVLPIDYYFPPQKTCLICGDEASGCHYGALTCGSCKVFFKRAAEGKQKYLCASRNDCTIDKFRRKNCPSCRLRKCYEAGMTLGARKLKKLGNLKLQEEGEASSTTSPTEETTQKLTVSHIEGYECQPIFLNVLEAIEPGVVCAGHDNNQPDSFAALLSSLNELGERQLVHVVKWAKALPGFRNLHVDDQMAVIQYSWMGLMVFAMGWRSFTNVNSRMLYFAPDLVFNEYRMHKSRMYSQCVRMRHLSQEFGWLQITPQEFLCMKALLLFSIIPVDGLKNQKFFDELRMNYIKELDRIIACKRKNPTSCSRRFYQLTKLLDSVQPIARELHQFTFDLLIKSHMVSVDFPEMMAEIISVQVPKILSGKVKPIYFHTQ
As to the kind of experiment: Test 1: androgen receptor transcriptional activation (2XIDR17-luciferase) assay in transfected C2C12 cells. It is filed as cell-based. Particulars: for Emax: percentage activity relative to 1 μM DHT, read-out: Biological activity (C2C12 cell) Emax % (converted). Here is the method:
A suitable assay to determine the ability of a ligand to transcriptionally activate androgen receptor (AR) is carried out using mouse myoblastic C2C12 cells. The assay involves transfecting C2C12 cells with a plasmid containing full-length AR along with an AR response element linked to luciferase (2XIDR17). The luminescence read-out at the end of the assay is measured using Victor 3 and is a direct measure of the transcriptional activity. The assay has been validated using the reference compound, BMS-564929, for which EC50 values have been reported in a similar set-up.
C2C12 cells were obtained from ATCC (Cat #CRL-1772) and maintained in DMEM modified to contain 4 mM L-glutamine, 4.5 g/L glucose, 1 mM sodium pyruvate and 1.5 g/L sodium bicarbonate and 10% FBS.
AR-FL in pcDNA 3.1(+) and 2XIDR17 in pGL4.26 plasmids prepared using Genelute plasmid miniprep kit from Sigma Cat #PLED35 Steadyglow Luciferase assay system Promega Cat #E2550
• C2C12 cells were seeded in a 96-well plate in DMEM (Dulbecco's Modified Eagle Medium) without phenol red and containing 10% CS-FBS (Charcoal-stripped Fetal Bovine Serum) at 8000 cells/well. • The next day, cells were transfected with an equimolar ratio of (Androgen Receptor-Full length) AR-FL and 2XIDR17-Luciferase at a total plasmid concentration of 200 ng/well using Lipofectamine 2000 following manufacturer's protocol. • For the transfection, 83 ng of AR-FL and 117 ng of 2XIDR17-Luciferase were in 12.5 μl of OptiMEM—Mix A. 0.4 μl of Lipofectamine 2000 was added to 12.5 μl of OptiMEM and incubated for 5 min at room temperature—Mix B. The two mixes A and B were mixed and incubated at room temperature for an additional fifteen minutes. An additional 50 μl of OptiMEM was added, gently mixed and this mixture was added to the cells in the 96-well plate. The above quantities are requirements per well of a 96-well plate. Master mixes were made for the entire plate, with proportional quantity of reagents being used. • 5 h after transfection, compounds were added to the wells in DMEM without phenol red and containing 10% CS-FBS, maintaining a final DMSO concentration of 0.5%. A typical dose response curve starts at 10 μM and includes a 7-point, log dilution, done in triplicates. • After overnight incubation with the compounds, 100 ul of working solution of Steadyglow reagent was added to the wells. • The plates were placed in a shaker for 15 min at the end of which the lysate containing luciferase was transferred to a white flat-bottom plate and read under a luminescence setting in Victor. • Background subtracted counts (Luminescence from DMSO control wells is considered the background) are used to calculate percentage activity, expressed relative to activity with 1 μM (Dihydrotestosterone) DHT (at least two sets of triplicates for 1 μM DHT are included per plate).
The EC50 curves for the compounds for 8 compound concentrations were fitted by the respective function using non-linear least-squares regression in Graphpad Prism 4.0 (Graphpad Software, San Diego, Calif., USA).

Setting [1] is: mouse myoblastic C2C12 cells transfected with full-length AR and 2XIDR17-luciferase, read-out: Biological activity (C2C12 cell) EC50.
The mark [2] stands for this setting: C2C12 cells, read-out: EC50 value in test 1.
[3] abbreviates: C2C12 cells, compound at 100 nM, relative to 1 μM DHT.
Setting [4] is: C2C12 cells, compound at 5 μM, relative to 1 μM DHT.

Read-outs that look alike come from different tables or passages of the source.

Regarding `Cc1cnc(CN2C(=O)N(c3ccc(C#N)c(Cl)c3C)C(=O)C23CCCC3)o1` [Example 8.7, 2-chloro-3-methyl-4-(1-((5-methyloxazol-2-yl)methyl)-2,4-dioxo-1,3-diazaspiro[4.4]nonan-3-yl)benzonitrile], the Emax (C2C12, C2C12 cells) was 112%. For the same molecule, the EC50 under setting [1] is 8.9 nM. Turning to `Cc1c(N2C(=O)N(C)C3(CCCC3)C2O)ccc(C#N)c1Cl` (stereo not drawn) [2-chloro-4-(4-hydroxy-1-methyl-2-oxo-1,3-diazaspiro[4.4]nonan-3-yl)-3-methylbenzonitrile], under setting [2], the EC50 is over 30000 nM. On the same count and under the same terms, to `Cc1c(N2CC3(CCCC3F)N(C)C2=O)ccc(C#N)c1Cl` (stereo not drawn) [2-chloro-4-(6-fluoro-1-methyl-2-oxo-1,3-diazaspiro[4.4]nonan-3-yl)-3-methylbenzonitrile] belongs over 30000 nM.

For `Cc1c(N2C(=O)N(C)C3(CCCC3O)C2=O)ccc(C#N)c1Cl` (stereo not drawn) [1.0], where the note is “C2C12, C2C12 cells”, the Emax was 80%. Consider `Cc1ncc(CN2C(=O)N(c3ccc(C#N)c(Cl)c3C)C(=O)C23CCCC3)o1` [Example 8.10, 2-chloro-3-methyl-4-(1-((2-methyloxazol-5-yl)methyl)-2,4-dioxo-1,3-diazaspiro[4.4]nonan-3-yl)benzonitrile], for which the “% Biological activity (C2C12 cell) 100 nM” value under setting [3] is reported as 20%. Moreover, the “% Biological activity (C2C12 cell) 5 μM” value under setting [4] turned out to be 66%.

`COC1N(c2ccc(C#N)c(Cl)c2C)C(=O)N(C)C12CCCC2` (stereo not drawn) [2-chloro-4-(4-methoxy-1-methyl-2-oxo-1,3-diazaspiro[4.4]nonan-3-yl)-3-methylbenzonitrile]: the 50% effective concentration (EC50) under setting [2] is over 30000 nM. In the case of `Cc1c(N2C(=O)N(C)C3(C=CCC3)C2=O)ccc(C#N)c1Cl` (stereo not drawn) [1.5], the Emax (C2C12, C2C12 cells) was 66%. The same measure, in the same setting: to `Cc1c(N2C(=O)N(C)C3(CCOC3)C2=O)ccc(C#N)c1Cl` (stereo not drawn) [10.0] belongs 60%. `Cc1c(N2C(=O)N(CCOCC(C)C)C3(CCCC3)C2=O)ccc(C#N)c1Cl` [2-chloro-4-(1-(2-isobutoxyethyl)-2,4-dioxo-1,3-diazaspiro[4.4]nonan-3-yl)-3-methylbenzonitrile]: the concentration for a half-maximal effect (EC50) under setting [2] was over 30000 nM. In the case of `Cc1c(N2C(=O)N(CCc3ccncc3)C3(CCCC3)C2=O)ccc(C#N)c1Cl` [Example 8.2, 2-chloro-4-(2,4-dioxo-1-(2-(pyridin-4-yl)ethyl)-1,3-diazaspiro[4.4]nonan-3-yl)-3-methylbenzonitrile], the Emax (C2C12, C2C12 cells) was 70%. Further, under setting [1], the EC50 stood at 203 nM. Turning to `Cc1c(N2C(=O)N(CC3CCOCC3)C3(CCCC3)C2=O)ccc(C#N)c1Cl` [2-chloro-4-(2,4-dioxo-1-((tetrahydro-2H-pyran-4-yl)methyl)-1,3-diazaspiro[4.4]nonan-3-yl)-3-methylbenzonitrile], for the setting “C2C12, C2C12 cells, compound at 100 nM, relative to 1 μM DHT, read-out: % Biological activity (C2C12 cell) 100 nM”, the percent activity relative to 1 μM DHT at a single concentration at 0.1 µM is 5%. Further, the percent activity relative to 1 μM DHT at a single concentration at 5 µM (C2C12, C2C12 cells, compound at 5 μM, relative to 1 μM DHT, read-out: % Biological activity (C2C12 cell) 5 μM) was 12%. On to `Cc1c(N2C(=O)N(CCOCC#N)C3(CCCC3)C2=O)ccc(C#N)c1Cl` [Example 9.3, 2-chloro-4-(1-(2-(cyanomethoxy)ethyl)-2,4-dioxo-1,3-diazaspiro[4.4]nonan-3-yl)-3-methylbenzonitrile], for which the Emax (C2C12, C2C12 cells) was 91%. Also, the EC50 under setting [1] turned out to be 19.9 ± 1.7 nM.

`Cc1c(N2C(=O)N(C)C3(CCCC3C)C2=O)ccc(C#N)c1Cl` (stereo not drawn) [1.7]: the Emax (C2C12, C2C12 cells) was 91%.

As for `Cc1c(N2C(=O)N(CCCCC#N)C3(CCCC3)C2=O)ccc(C#N)c1Cl` [Example 9.6, 2-chloro-4-(1-(4-cyanobutyl)-2,4-dioxo-1,3-diazaspiro[4.4]nonan-3-yl)-3-methylbenzonitrile], the Emax (C2C12, C2C12 cells) was 90%. For the same molecule, the EC50 under setting [1] turned out to be 45 nM. As for `Cc1c(N2C(=O)N(C)C3(CCC(F)C3)C2=O)ccc(C#N)c1Cl` (stereo not drawn) [6.1], under “C2C12, C2C12 cells”, the Emax was 99%. Turning to `Cc1c(N2C(=O)N(CCC#N)C3(CCCC3)C2=O)ccc(C#N)c1Cl` [Example 9.8, 2-chloro-4-(1-(2-cyanoethyl)-2,4-dioxo-1,3-diazaspiro[4.4]nonan-3-yl)-3-methylbenzonitrile], for the setting “C2C12, C2C12 cells”, the Emax was 85%. Further, the EC50 under setting [1] was found to be 169 ± 82 nM.

Regarding `Cc1c(N2C(=O)N(C)C3(CCCC3F)C2=O)ccc(C#N)c1Cl` (stereo not drawn) [1.4], the Emax (C2C12, C2C12 cells) was 60%. `COC1N(c2ccc(C#N)c(Cl)c2C)C(=O)OC12CCCC2O` (stereo not drawn) [Example 4.1, 2-chloro-4-(6-hydroxy-4-methoxy-2-oxo-1-oxa-3-azaspiro[4.4]nonan-3-yl)-3-methylbenzonitrile]: the Emax (C2C12, C2C12 cells) is 40%. The EC50 under setting [1] turned out to be 2590 nM.

As for `CCOCCN1C(=O)N(c2ccc(C#N)c(Cl)c2C)C(=O)C12CCCC2` [2-chloro-4-(1-(2-ethoxyethyl)-2,4-dioxo-1,3-diazaspiro[4.4]nonan-3-yl)-3-methylbenzonitrile], the EC50 under setting [2] is over 30000 nM. In the case of `Cc1c(N2C(=O)N(CCF)C3(CCCC3)C2=O)ccc(C#N)c1Cl` [Example 9.0, 2-chloro-4-(1-(2-fluoroethyl)-2,4-dioxo-1,3-diazaspiro[4.4]nonan-3-yl)-3-methylbenzonitrile], the EC50 (Biological activity (C2C12 cell) EC50 (nM), mouse myoblastic C2C12 cells transfected with full-length AR and 2XIDR17-luciferase) stood at 45.4 nM. Also, where the note is “C2C12, C2C12 cells”, the Emax was 99%. Turning to `Cc1c(N2C(=O)N(CCOC(C)C)C3(CCCC3)C2=O)ccc(C#N)c1Cl` [2-chloro-4-(1-(2-isopropoxyethyl)-2,4-dioxo-1,3-diazaspiro[4.4]nonan-3-yl)-3-methylbenzonitrile], the EC50 under setting [2] was over 30000 nM. As for `Cc1c(N2C(=O)N(Cc3cnco3)C3(CCCC3)C2=O)ccc(C#N)c1Cl` [Example 8.9, 2-chloro-3-methyl-4-(1-(oxazol-5-ylmethyl)-2,4-dioxo-1,3-diazaspiro[4.4]nonan-3-yl)benzonitrile], the Emax (C2C12, C2C12 cells) is 87%. Also, the EC50 under setting [1] was 25 nM. For the molecule `Cc1c(N2C(=O)N(CCCC#N)C3(CCCC3)C2=O)ccc(C#N)c1Cl` [Example 9.4, 2-chloro-4-(1-(3-cyanopropyl)-2,4-dioxo-1,3-diazaspiro[4.4]nonan-3-yl)-3-methylbenzonitrile], the Emax (C2C12, C2C12 cells) was 90%. Under setting [1], the EC50 came to 26.5 nM. On to `Cc1c(N2C(=O)N(Cc3ncc(CO)o3)C3(CCCC3)C2=O)ccc(C#N)c1Cl` [Example 8.8, 2-chloro-4-(1-((5-(hydroxymethyl)oxazol-2-yl)methyl)-2,4-dioxo-1,3-diazaspiro[4.4]nonan-3-yl)-3-methylbenzonitrile], for which the “% Biological activity (C2C12 cell) 100 nM” value under setting [3] stood at 26%. In addition, the “% Biological activity (C2C12 cell) 5 μM” value under setting [4] worked out at 70%.

As usually defined, the Emax is the maximal effect, on the per cent scale that the assay sets. What is called EC50 is the concentration at which the effect is half-maximal.
